Key:
A549 cells = experiment: Cell growth inhibitory activity using A549 cells (Test Example 6); type: cell-based, Human; conditions: for inhibition at 30 µM: Homo sapiens, A549, compound 30 µM, 5% serum, 40 hr, counting kit-8, read-out: Cell growth inhibition rate (%); for inhibitory activity against cell growth or BMP4 signals: as compared with Example 261 or Example 269 described in WO 03/00660; for inhibitory activity against cell growth of A549 cells: as compared with Example 274 described in WO 03/00660
Method: Human lung cancer epithelial cells (A549) (available from ATCC) were suspended to a concentration of 3 × 10^4/ml in a DMEM/F12 medium containing 10%FCS, and the suspension was inoculated in 100 µl portions in wells of a 96-well plate. On the following day, a stock solution of the test compound which had been adjusted to 10 mM with DMSO was adjusted with a serum-free DMEM/F12 medium to a dose (60 µM) which was twice the evaluation concentration. After removing the medium inoculated in the 96 wells on the previous day, the solution was added in 50 µl portions to the plate. Next, a DMEM/F12 medium containing 10% serum was added in 50 µl portions to the wells, followed by culturing at 37°C for 40 hr. The final concentration of the serum and the concentration of the evaluation compound were 5% and 30 µM, respectively. The compounds according to the present invention synthesized in the working example were used as the test compound. […]
After 40 hr, the culture was removed, and 100 µl of a solution prepared by diluting counting kit-8 (purchased from Dojindo) with a serum-free F12 medium by 10 times was added, followed by culturing at 37°C for 20 to 30 min. After the confirmation of suitable color development, the absorbance at 450 nm was measured with ARVO (purchased from Wallach Bethold Japan). The cell growth inhibition in the test compound added wells were determined by presuming the absorbance value in the test compound-free wells to be 0% and the absorbance value in the cell-free wells to be 100%.

BMP4 signal = experiment: BMP signal inhibitory activity, p(GCCG)12-Luc reporter in HepG2 cells (Test Example 7); type: cell-based, human; conditions: for Selectivity for BMP (times): Inhibitory activity against BMP4 signal (IC50)/Inhibitory activity against TGFβ signal (IC50), HepG2 reporter cells, BMP4 20 ng/ml, TGFβ-1 2 ng/ml, 4 hr; for inhibitory activity against BMP4 signals: as compared with Example 274 described in WO 03/00660
Source text: The inhibitory activity of the compounds according to the present invention against BMP signals was studied using a cell line through which TGFb and BMP signals can be simultaneously observed. Specifically, the cell lines capable of detecting the two signal was generated by transfecting reporter plasmids for detection of TGFb and BMP signals into a human hepatocarcinoma cell line HepG2(available from ATCC) and was used as evaluation cells. For detection of TGF-beta signal, the plasmid having four tandem binding sequences of Smad2/3, TGF-beta signal transducers, to the upstream of a luciferases gene were used as a reporter plasmid (p(SBE)4-Luc/hygro). For detection of BMP signal, the plasmid having twelve tandem binding sequences of Smadl/5/8, BMP signal transducers, to the upstream of a luciferases gene were used as a reporter plasmid (p(GCCG)12-Luc/neo), according to the method described in Mol Biol Cell. 2000 11(2): 555-65. The test compound and TGFβ-1 (2 ng/ml) or BMP4 (20 ng/ml) were added to the cells, and the mixture was cultured for 4 hr. The compounds according to the present invention synthesized in the working example were used as the test compound. […] After the culture, the luciferase activity of the cells was measured by chemiluminescence (Steady Glo (trademark) luciferase assay system, available from Promega). Likewise, the luciferase activity was measured as control for the culture of cells with only TGFβ or BMP4 added thereto and the culture of cells with the addition of none of TGFβ, BMP4 and the test compound. The inhibitory activity IC50 of the compounds against TGFβ and BMP4 was calculated based on the results of measurement, and the kinase selectivity for BMP4 was determined by the following method. Kinase selectivity for BMP4 (times) = Inhibitory activity against BMP4 signal (IC50)/Inhibitory activity against TGFβ signal (IC50)

TGFβ signal = TGFβ signal inhibitory activity, (SBE)4-Luc reporter in A549 cells (Test Examples 1A and 1B); type: cell-based, human; conditions: Homo sapiens, A549, TGFβ-1 2 ng/ml, 4 hr, Table 1A, read-out: TGFβ inhibition rate, %; for inhibition at 3 µM: test compound 3 µM; for inhibition at 10 µM: test compound 10 µM
In short: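 Compounds at 3 µM and 10 µM (some 1 µM) were added with 2 ng/ml TGFβ-1 to A549 cells stably expressing an SBE-driven luciferase, then cultured 4 hr. Chemiluminescent luciferase signal gave % inhibition versus TGFβ-alone and no-TGFβ controls.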

Row | Structure (SMILES) | inhibition at 30 µM (A549 cells) [%] | inhibitory activity against cell growth or BMP4 signals (A549 cells) | Selectivity for BMP (times) (BMP4 signal) | inhibition at 3 µM (TGFβ signal) [%] | inhibition at 10 µM (TGFβ signal) [%] | inhibitory activity against cell growth of A549 cells (A549 cells) | inhibitory activity against BMP4 signals (BMP4 signal)
1 | CCc1ccc(Oc2ccnc3ccc(OCCO)cc23)c(-c2ccccn2)n1 [Compound 181, 2-[4-(6-Ethyl-[2,2']bipyridinyl-3-yloxy)-quinolin-6-yloxy]-ethanol] | -7 | reduced inhibitory activity | 308 | 100 | 100 |  | 
2 | CCc1ccc(Oc2ccnc3ccc(OCCOC(C)=O)cc23)c(-c2ccccn2)n1 [Compound 182, 2-[4-(6-Ethyl-[2,2']bipyridinyl-3-yloxy)-quinolin-6-yloxy]-ethyl acetate] | -8 | reduced inhibitory activity | 195 | 99 | 100 |  | 
3 | CCc1ccc(Oc2ccnc3ccc(O)cc23)c(-c2ccccn2)n1 [Compound 184, 4-(6-Ethyl-[2,2']bipyridinyl-3-yloxy)-quinolin-6-ol] | 8 | reduced inhibitory activity | > 428 | 100 | 100 |  | 
4 | CCc1ccc(Oc2ccnc3ccc(OS(C)(=O)=O)cc23)c(-c2ccccn2)n1 [Compound 187, 4-(6-Ethyl-[2,2']bipyridinyl-3-yloxy)-quinolin-6-yl methanesulfonate] | 0 | reduced inhibitory activity | 72 | 100 | 100 |  | 
5 | CCc1ccc(Oc2ccnc3ccc(OCCO)cc23)c(-c2ncccn2)n1 [Compound 192, 2-[4-(6-Ethyl-2-pyrimidin-2-yl-pyridin-3-yloxy)-quinolin-6-yloxy]-ethanol] | 3 |  | > 176 | 97 | 100 | reduced inhibitory activity | reduced inhibitory activity
6 | CCc1ccc(Oc2ccnc3cc(C(N)=O)c(O)cc23)c(-c2ncccn2)n1 [Compound 194, 4-(6-Ethyl-2-pyrimidin-2-yl-pyridin-3-yloxy)-6-hydroxy-quinoline-7-carboxylic acid amide] | -15 |  | 51 | 60 |  | reduced inhibitory activity | reduced inhibitory activity
7 | Cc1cc(Oc2ccnc3ccc(OCCO)cc23)c(-c2ncccn2)nc1C [Compound 200, 2-[4-(5,6-Dimethyl-2-pyrimidin-2-yl-pyridin-3-yloxy)-quinolin-6-yloxy]-ethanol] | 0 |  | 75 | 85 |  | reduced inhibitory activity | reduced inhibitory activity
8 | Cc1ccc(Oc2ccnc3ccc(O)cc23)c(-c2ncccn2)n1 [Compound 201, 4-(6-Methyl-2-pyrimidin-2-yl-pyridin-3-yloxy)-quinolin-6-ol] | 2 |  |  | 82 |  | reduced inhibitory activity | reduced inhibitory activity
9 | Cc1ccc(Oc2ccnc3ccc(OCCO)cc23)c(-c2ncccn2)n1 [Compound 202, 2-[4-(6-Methyl-2-pyrimidin-2-yl-pyridin-3-yloxy)-quinolin-6-yloxy]-ethanol] | 8 |  | 21.4 | 86 |  | reduced inhibitory activity | reduced inhibitory activity
10 | CCc1ccc(Oc2ccnc3ccc(OCCN)cc23)c(-c2ncccn2)n1 [Compound 204, 2-[4-(6-Ethyl-2-pyrimidin-2-yl-pyridin-3-yloxy)-quinolin-6-yloxy]-ethylamine] | -9 |  |  | 84 |  | reduced inhibitory activity | reduced inhibitory activity
11 | CCc1ccc(Oc2ccnc3ccc(OCCOC(C)=O)cc23)c(-c2ncccn2)n1 [Compound 206, 2-[4-(6-Ethyl-2-pyrimidin-2-yl-pyridin-3-yloxy)-quinolin-6-yloxy]-ethyl acetate] | -1 |  |  | 89 |  | reduced inhibitory activity | reduced inhibitory activity
12 | Cc1ccc(Oc2ccnc3cc(C(N)=O)ccc23)c(-c2ncccn2)n1 [Compound 217, 4-(6-Methyl-2-pyrimidin-2-yl-pyridin-3-yloxy)-quinoline-7-carboxylic acid amide] | 4 |  |  | 90 | 100 | reduced inhibitory activity | reduced inhibitory activity
13 | Cc1ccc(Oc2ccnc3ccc(OCCCO)cc23)c(-c2ncccn2)n1 [Compound 222, 3-[4-(6-Methyl-2-pyrimidin-2-yl-pyridin-3-yloxy)-quinolin-6-yloxy]-propan-1-ol] | 6 |  |  | 91 | 100 | reduced inhibitory activity | reduced inhibitory activity
14 | CCc1ccc(Oc2ccnc3cc(F)c(OCCO)cc23)c(-c2ncccn2)n1 [Compound 225, 2-[4-(6-Ethyl-2-pyrimidin-2-yl-pyridin-3-yloxy)-7-fluoro-quinolin-6-yloxy]-ethanol] | 8 |  |  | 89 | 99 | reduced inhibitory activity | reduced inhibitory activity

From EP1724268A1, “COMPOUND HAVING TGF-BETA INHIBITORY ACTIVITY AND PHARMACEUTICAL COMPOSITION CONTAINING SAME” (KIRIN BEER KABUSHIKI KAISHA, priority 2004, dated 2005)
